≈ marks a conversion by molar mass, not a printed value.
Columns and labels:
[1] = target: Hsp90 Nuclear Binding Domain (NBD) (Candida albicans (strain SC5314 / ATCC MYA-2876) (Yeast), UniProt P46598); test: Surface Plasmon Resonance (SPR) binding, C. albicans Hsp90 NBD; settings: biotinylated Hsp90 NBD on streptavidin chip, 25° C., 1:1 binding model
Procedure: (§1) Surface Plasmon Resonance (SPR) Experiments. SPR experiments were performed on a Biacore S200 instrument at 25° C. Biotinylated Hsp90 Nuclear Binding Domain (NBD) was diluted to 40 μg/mL and immobilized on a streptavidin chip (Sensor Chip SA, GE Healthcare) at a density of 2000-2500 response units (RU) on the biosensor surface.
(§2) Recombinant Hsp90 NBDs were expressed and purified as previously described (Whitesell et al., Nat Commun 10, 402 (2019)) with the following modification; Hsp90 NBD expression constructs were modified to encode a C-terminal AviTag for site-specific on-column biotinylation with a BirA biotin-ligase kit (Avidity LLC; BirA-500). Stock protein solutions in 50% glycerol were stored at −20° C. until dilution into relevant buffers. Binding experiments were done in HBS-P (0.01 M HEPES, pH 7.4, 0.15 M NaCl, 0.005% v/v surfactant P20, GE Healthcare) with 2% DMSO at flow rate of 40 μL/min. Test compounds (dilution series) were injected with a 60 s association time and 600 s dissociation time. Resulting sensorgrams were analyzed with a fit to a 1:1 binding model, using BIA evaluation software.

[2] = target: Hsp90 Nuclear Binding Domain (NBD) (Aspergillus fumigatus, UniProt P40292); test: Surface Plasmon Resonance (SPR) binding, A. fumigatus Hsp90 NBD; settings: biotinylated Hsp90 NBD on streptavidin chip, 25° C., 1:1 binding model; NB undefined
Chain of Hsp90 Nuclear Binding Domain (NBD) (Aspergillus fumigatus, UniProt P40292) (P40292 whole entry, looked up, the tested form may be a part): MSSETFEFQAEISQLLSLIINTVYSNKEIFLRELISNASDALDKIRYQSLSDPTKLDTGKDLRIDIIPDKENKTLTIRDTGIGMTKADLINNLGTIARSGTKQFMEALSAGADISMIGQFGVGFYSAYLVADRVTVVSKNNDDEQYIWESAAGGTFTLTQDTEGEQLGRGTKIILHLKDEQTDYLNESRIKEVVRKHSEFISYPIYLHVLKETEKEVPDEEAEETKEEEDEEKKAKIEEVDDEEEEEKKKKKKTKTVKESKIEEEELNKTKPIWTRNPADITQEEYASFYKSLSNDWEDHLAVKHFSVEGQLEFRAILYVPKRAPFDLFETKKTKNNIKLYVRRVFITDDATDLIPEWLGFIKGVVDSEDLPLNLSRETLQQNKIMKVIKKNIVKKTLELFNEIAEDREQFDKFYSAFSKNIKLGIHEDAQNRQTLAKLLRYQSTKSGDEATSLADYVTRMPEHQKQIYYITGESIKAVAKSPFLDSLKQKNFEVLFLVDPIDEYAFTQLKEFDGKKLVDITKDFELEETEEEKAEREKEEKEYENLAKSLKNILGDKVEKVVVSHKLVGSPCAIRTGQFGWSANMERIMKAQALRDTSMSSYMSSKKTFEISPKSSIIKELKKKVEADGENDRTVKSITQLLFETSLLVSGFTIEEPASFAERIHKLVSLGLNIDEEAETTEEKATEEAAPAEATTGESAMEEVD
Procedure: as §1, §2

CaCl2 = test: Antifungal sensitivity testing (broth microdilution MIC); type: cell-based; settings: Table 4; 96-well broth microdilution
Procedure: Antifungal Sensitivity Testing. Minimum inhibitory concentrations (MICs) were determined in flat bottom, 96-well plate format using a modified broth microdilution protocol as previously described (Singh et al., PLoS Pathog. 5, e1000532 (2009); LaFayette et al., PLoS Pathog. 6, 79-80 (2010)). Compounds were formulated in dimethyl sulfoxide (DMSO, Sigma-Aldrich Co.); fluconazole was dissolved in sterile ddH2O. Each compound was tested in duplicate in at least two independent experiments. To test for fungicidal activity, cultures from MIC plates were spotted on YPD agar plates using a spotter (Frogger, V&P Scientific, Inc.). Plates were photographed after 24 h of incubation at 30° C.

Chain of Hsp90 Nuclear Binding Domain (NBD) (Candida albicans (strain SC5314 / ATCC MYA-2876) (Yeast), UniProt P46598) (P46598 1-218 limits assumed): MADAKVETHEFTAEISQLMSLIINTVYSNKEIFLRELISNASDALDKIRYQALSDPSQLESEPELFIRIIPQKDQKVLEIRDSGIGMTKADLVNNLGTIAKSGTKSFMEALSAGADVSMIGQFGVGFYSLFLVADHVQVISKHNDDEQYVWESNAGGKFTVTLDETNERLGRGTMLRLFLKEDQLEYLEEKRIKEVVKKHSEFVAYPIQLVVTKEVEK

Row | Compound | Kd [1] [nM] | Kd [2] [nM] | MIC50 (CaCl2) [µM]
1 | Nc1nc2sc(-c3nc(C(=O)NCC(O)(Cn4cncn4)c4ccc(F)cc4F)no3)cc2n(-c2ccc3c(c2)N(c2ccccc2)CCO3)c1=O (stereo not drawn) [Compound I-57, 5-(3-amino-2-oxo-1-(4-phenyl-3,4-dihydro-2H-benzo[b][1,4]oxazin-6-yl)-1,2-dihydrothieno[2,3-b]pyrazin-6-yl)-N-(2-(2,4-difluorophenyl)-2-hydroxy-3-(1H-1,2,4-triazol-1-yl)propyl)-1,2,4-oxadiazole-3-carboxamide] | 32.1 | 46.9 | 20 (≈ 14.5 µg/mL)
2 | Nc1nc2sc(CNC3CCN(C[C@](O)(Cn4cncn4)c4ccc(F)cc4F)CC3)cc2n(-c2ccc3c(c2)N(c2ccccc2)CCO3)c1=O [Compound I-63, (S)-3-amino-6-(((1-(2-(2,4-difluorophenyl)-2-hydroxy-3-(1H-1,2,4-triazol-1-yl)propyl)piperidin-4-yl)amino)methyl)-1-(4-phenyl-3,4-dihydro-2H-benzo[b][1,4]oxazin-6-yl)thieno[2,3-b]pyrazin-2(1H)-one] | 377 | 591 | 9 (≈ 6.53 µg/mL)
3 | Nc1nc2sc(CNC3CN(CC(O)(Cn4cncn4)c4ccc(F)cc4F)C3)cc2n(-c2ccc3c(c2)N(c2ccccc2)CCO3)c1=O (stereo not drawn) [Compound I-66, 3-amino-6-(((1-(2-(2,4-difluorophenyl)-2-hydroxy-3-(1H-1,2,4-triazol-1-yl)propyl)azetidin-3-yl)amino)methyl)-1-(4-phenyl-3,4-dihydro-2H-benzo[b][1,4]oxazin-6-yl)thieno[2,3-b]pyrazin-2(1H)-one] | 1060 | 1380 | 22.5 (≈ 15.7 µg/mL)
4 | Nc1nc2sc(CN3CCN(CC(O)(Cn4cncn4)c4ccc(F)cc4F)CC3)cc2n(-c2ccc3c(c2)N(c2ccccc2)CCO3)c1=O (stereo not drawn) [Compound I-68, 3-amino-6-((4-(2-(2,4-difluorophenyl)-2-hydroxy-3-(1H-1,2,4-triazol-1-yl)propyl)piperazin-1-yl)methyl)-1-(4-phenyl-3,4-dihydro-2H-benzo[b][1,4]oxazin-6-yl)thieno[2,3-b]pyrazin-2(1H)-one] | 417 | 545 | 0.75 (≈ 0.534 µg/mL)
5 | Nc1nc2sc(CN[C@H]3CCN(CC(O)(Cn4cncn4)c4ccc(F)cc4F)C3)cc2n(-c2ccc3c(c2)N(c2ccccc2)CCO3)c1=O (stereo partly drawn) [Compound I-71, 3-amino-6-((((3S)-1-(2-(2,4-difluorophenyl)-2-hydroxy-3-(1H-1,2,4-triazol-1-yl)propyl)pyrrolidin-3-yl)amino)methyl)-1-(4-phenyl-3,4-dihydro-2H-benzo[b][1,4]oxazin-6-yl)thieno[2,3-b]pyrazin-2(1H)-one] | 865 | 1260 | 6.25 (≈ 4.45 µg/mL)
6 | Nc1nc2sc(CNCCC(O)(Cn3cncn3)c3ccc(F)cc3F)cc2n(-c2ccc3c(c2)N(c2ccccc2)CCO3)c1=O (stereo not drawn) [Compound I-74, 3-amino-6-(((3-(2,4-difluorophenyl)-3-hydroxy-4-(1H-1,2,4-triazol-1-yl)butyl)amino)methyl)-1-(4-phenyl-3,4-dihydro-2H-benzo[b][1,4]oxazin-6-yl)thieno[2,3-b]pyrazin-2(1H)-one] | 429 | 853 | 12 (≈ 7.88 µg/mL)
7 | Nc1nc2sc(CN[C@@H]3CCCN(CC(O)(Cn4cncn4)c4ccc(F)cc4F)C3)cc2n(-c2ccc3c(c2)N(c2ccccc2)CCO3)c1=O (stereo partly drawn) [Compound I-75, 3-amino-6-((((3R)-1-(2-(2,4-difluorophenyl)-2-hydroxy-3-(1H-1,2,4-triazol-1-yl)propyl)piperidin-3-yl)amino)methyl)-1-(4-phenyl-3,4-dihydro-2H-benzo[b][1,4]oxazin-6-yl)thieno[2,3-b]pyrazin-2(1H)-one] | 233 | 340 | 4 (≈ 2.9 µg/mL)
